In patent US20050244964A1, “Production of neural progenitor cells” (priority 2002, published 2005):

What was measured:
[1] = test system: Human ES cells; test: TH+ cell immunostaining of adhered human ES cell embryoid bodies; type: cell-based; settings: for formation of TH+ cells (in words): human ES embryoid bodies adhered and differentiated
Method: Collagenase/trypsin passaged ES cells were prepared as a single cell suspension and seeded at a density of 150 cells/μl in low attachment TC dishes (Costar). Cell aggregates were split 1:3 at day 2 and possibly at day 3 if required. Cultures were feed daily for 9 days and on day 9 bodies were transferred to poly-L-ornithine/laminin coated 24 well trays in 0.5 ml of medium if adhesive culture was to be conducted. Another 0.5 ml media was added to each well after 24 hours incubation. Adhered cultures or suspension cultures were fed daily for a further 8 days.
Embryoid bodies or neurospheres/aggregates are allowed to settle onto a coated surface to allow differentiation to occur (4 to 8 days). The coating can be on a plastic surface in either a tray or a coated coverslip.
The ability of basic media with supplements (DMEM +N2 or ITSS) to promote neural differentiation of hES cells was compared with medium that included F12: (DMEM:F12 (1:1) +N2 or ITSS)
Trypsinised Human ES cells were seeded at approximately 10 to 20 cells/μl of media into 10 ml of neurosphere media (DMEM:F12, 10 μg/ml heparin (SIGMA), 1/50 B27(GIBCO), 1/100 pen/strep, 1/100 ITSS) in a T75 culture flask. 10 ng/ml FGF2 was optionally added but the culture medium was preferably mitogen-free (no FGF2). Cultures were maintained in the media for 9 days after which the embryoid bodies were optionally transferred to poly-L-ornithine/laminin plates and cultured in the same media for a further 6 days. The embryoid bodies so formed (EB^15) whether from adherent or suspension culture, were then triturated to near single cell form and used for either transplantation or for the formation of neurospheres/cell reaggregates.
Example 5 was repeated utilising human ES cells and a minimal media consisting of DMEM and 100 μM L-proline as outlined in the schematic of FIG. 12. Results were similar to those described in Example 5.

[2] = test system: mouse ES cells; test: Neural versus non-neural differentiation and neural complexity scoring of mouse ES cell embryoid bodies; type: cell-based; settings: RA doses 1 μM and 10 nM compared with 100 nM
Description: FIG. 2A is a graph that illustrates the level of neural differentiation when retinoic acid and MEDII are and are not present. The first column (ICb−RA) used a standard media (ICb, see Example 2), where a high percentage of non-neural tissue (scored as beating muscle) was observed. […] The third column used a 50% MEDII conditioned media but without RA supplementation. […] The fourth column used 50% MEDII supplemented with RA.
FIG. 2B is similar to FIG. 2A except the level of neural complexity was scored. A score of 1 to 3 was assigned depending upon the neuronal complexity (number of neurites and networking emanating from the body), with a score of 3 for the most complex.
Single cell suspensions of mouse ES cells were cultured for 4 days in standard culture media (ICb) or in the presence of 50% MEDII. The standard conditioning media (ICb) contains 90 ml DMEM, 10 ml of foetal calf serum, 1 ml glutamine (0.1M stock at 1/100 dilution) and 100 ul of β-Mercaptoethanol (0.1M stock at 1/1000 dilution). The culture process involved media changes on days 2 and 4 involving a ½ splitting of the cell aggregates. […] This media change occurred every day for three days (i.e to EBM^7). By the end of this period the morphological differences in treatment when supplemented with combinations of 50% MEDII and/or RA were apparent. […]

Molecule | formation of TH+ cells (in words) [1] | proportion of TH+ cells ([1]; human ES embryoid bodies, 9 days suspension then adherent culture on laminin, with N2 or ITSS, L-proline 100 μM in DMEM) [%] | uniformity of RA effect on embryoid bodies [2]
O=C(O)[C@@H]1CCCN1 [L-proline] | high numbers of TH+cells | ~50 | 
CC1=C(/C=C/C(C)=C/C=C/C(C)=C/C(=O)O)C(C)(C)CCC1 [RA, (all-E)-3,7-dimethyl-9-(2,6,6-trimethyl-1-cyclohexen-1-yl)-2,4,6,8-nonatetraenoic acid] |  |  | not as uniform as seen with 100 nM RA
FGF2: fibroblast growth factor | little impact on the generation of TH+ cells |  | 
